From patent US9241962B2, “Water extract of Antrodia camphorata for immunostimulatory effect and preparation method thereof” (Kaohsiung Medical University, priority 2009, dated 2016)

Assays:
Assay type in all cases: cell-based, human
[1] = test system: DCs; test: Polymyxin B test of CD86 and HLA-DR expression on induced DCs; conditions: DCs treated with polymyxin B, then LPS or ACW; FIG. 7
Protocol: Polymyxin B is an antibiotic used for inactivating potential LPS contamination when evaluating the activity of different agents on immune cells. Therefore, whether polymyxin B blocks the phenotypic maturation of ACW-induced DCs is determined. […] Accordingly, ACW is able to stimulate the maturation of DCs without LPS contamination.

[2] = test system: DCs; test: IL-12 production in culture supernatants of stimulated DCs; parameters: unit not given here; conditions: LPS; PBS 235.53±2.54; FIG. 9
Protocol: The preparation method of DCs was mainly prepared and modified from Lin et al, 2006. First, peripheral blood mononuclear cells (PBMCs) were obtained from 12 healthy donors by centrifugation with the Ficoll-Hypaque (Amersham Bioscience, Uppsala, Sweden) density gradient centrifugation. PBMCs were cultured in RPMI 1640 medium supplemented with 10% fetal calf serum, 1 mM L-glutamin, 100 μg/ml streptomycin and 100 U/ml penicillin for 2 hours. The nonadherent cells were removed, and the T cells were purified by nylon wool separation, as the source of mononuclear T lymphocytes. T cells were loaded into the column and the eluted nonadherent cell fraction was rich in T cells. As determined by FACS, the resulting cell population was 80% T cells with a high expression of CD3. The adherent cells were cultured for 6 days in RPMI 1640 medium with 50 ng/ml of granulocyte-macrophage colony-stimulating factor (GM-CSF) and interleukin-4 (IL-4). […] ImDCs were further treated with phosphate buffered saline (PBS), LPS (100 ng/ml) and different doses of ACW for an additional 2 days and then assessed by flow cytometry.
Levels of IL-12, IL-10, IFN-γ and IL-4 in the culture supernatants from DCs or T cells were evaluated by using highly sensitive human cytokine assay kits (R&D Systems, Minneapolis, USA) according to the manufacturer's instructions.

[3] = test system: DCs; test: Inhibition of MAPKs and PI3K/Akt activation before ACW stimulation of DCs; conditions: inhibitor 25 μM for 2 hours before ACW; for IL-12 production of DCs induced by ACW after inhibitor pretreatment: FIG. 13(B)
Protocol: To examine the signal transduction pathways involved in the effects of ACW on DC maturation, DCs were pretreated at 37° C. with ERK inhibitor PD98059 (25 μM), JNK inhibitor SP600125 (25 μM), p38 MAPK inhibitor SB203580 (25 μM) or PI3K/Akt inhibitor LY294002 (25 μM) for 2 hours before stimulation with ACW. After 2 days, phenotyping characteristics of DCs and IL-12 production in the supernatants of DCs were analyzed.

## lipopolysaccharide [LPS]
[1]
  expressions of CD86 and HLA-DR after polymyxin B treatment in advance: significantly inhibits the expressions of CD86 and HLA-DR
[2]
  concentration of IL-12 produced by DCs: 698.45

## C[S+]([O-])c1ccc(-c2nc(-c3ccncc3)c(-c3ccc(F)cc3)[nH]2)cc1 (centres unmarked) [SB203580]
[3]; FIG. 13(A)
  CD86 expression of the ACW-treated DCs after inhibitor pretreatment: inhibit CD86 expression
[3]
  IL-12 production of DCs induced by ACW after inhibitor pretreatment: significantly blocks the up-regulation of IL-12 production

## COc1cccc(-c2cc(=O)c3ccccc3o2)c1N [PD98059]
[3]
  IL-12 production of DCs induced by ACW after inhibitor pretreatment: upregulates the IL-12 production
